Here are results for 33 compounds from BindingDB's records for doi:10.7270/Q2KP80J0 (The Scripps Research Institute Molecular Screening Center, 2007).

This experiment deals with T1, Ephrin type-B receptor 4 (Homo sapiens, UniProt P54760).
T1 sequence (P54760 whole entry): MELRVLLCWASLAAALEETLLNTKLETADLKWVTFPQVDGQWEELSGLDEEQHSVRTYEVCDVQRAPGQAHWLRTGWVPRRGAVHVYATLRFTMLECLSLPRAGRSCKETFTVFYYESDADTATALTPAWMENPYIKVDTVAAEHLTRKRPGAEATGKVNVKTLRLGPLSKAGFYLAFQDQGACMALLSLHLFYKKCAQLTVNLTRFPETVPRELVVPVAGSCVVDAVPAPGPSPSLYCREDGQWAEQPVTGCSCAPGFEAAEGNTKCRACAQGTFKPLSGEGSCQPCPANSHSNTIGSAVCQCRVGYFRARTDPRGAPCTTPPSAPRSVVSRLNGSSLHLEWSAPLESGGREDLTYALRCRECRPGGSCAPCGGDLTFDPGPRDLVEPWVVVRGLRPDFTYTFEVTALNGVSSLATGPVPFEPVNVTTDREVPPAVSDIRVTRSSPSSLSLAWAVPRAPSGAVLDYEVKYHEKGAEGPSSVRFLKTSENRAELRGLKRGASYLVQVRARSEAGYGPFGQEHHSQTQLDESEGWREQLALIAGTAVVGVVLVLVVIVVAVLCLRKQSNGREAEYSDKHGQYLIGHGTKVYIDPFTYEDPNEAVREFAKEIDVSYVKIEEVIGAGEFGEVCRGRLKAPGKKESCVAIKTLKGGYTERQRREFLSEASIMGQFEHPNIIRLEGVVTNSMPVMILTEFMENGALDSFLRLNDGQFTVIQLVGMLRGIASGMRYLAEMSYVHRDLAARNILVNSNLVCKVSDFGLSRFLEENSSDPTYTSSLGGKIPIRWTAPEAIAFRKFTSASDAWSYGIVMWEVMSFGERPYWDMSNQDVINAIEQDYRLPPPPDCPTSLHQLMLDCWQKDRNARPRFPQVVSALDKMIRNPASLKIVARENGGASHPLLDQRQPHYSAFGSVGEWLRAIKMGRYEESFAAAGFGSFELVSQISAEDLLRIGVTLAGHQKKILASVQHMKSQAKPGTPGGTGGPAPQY
In words: blockers of EphB4 ligand binding – biochemical, TNYL-RAW peptide displacement, dose response (AID 835).
`CC(=O)Nc1ccc(SCC(=O)OCC(=O)NC(=O)NCc2ccco2)cc1` [2-[(4-acetamidophenyl)thio]acetic acid [2-(2-furfurylcarbamoylamino)-2-keto-ethyl] ester]: the half-inhibitory concentration (IC50) was greater than 79.4 µM. For `Cn1cnnc1SCC(=O)Nc1ccc2nc(SCc3cccc4ccccc34)sc2c1` [2-[(4-methyl-1,2,4-triazol-3-yl)sulfanyl]-N-[2-(naphthalen-1-ylmethylsulfanyl)-1,3-benzothiazol-6-yl]acetamide], the IC50 was greater than 79.4 µM. On to `CCCCCCOC(=O)C(C#N)c1nc2ccccc2nc1N1CCN(C)CC1` (stereo not drawn) [2-cyano-2-[3-(4-methyl-1-piperazinyl)-2-quinoxalinyl]acetic acid hexyl ester], for which the IC50 is greater than 79.4 µM. In the case of `CCC1CCCCN1C(=O)Nc1cccc(NC(=O)N2CCCCC2CC)c1` (stereo not drawn) [2-ethyl-N-[3-[(2-ethylpiperidin-1-yl)carbonylamino]phenyl]piperidine-1-carboxamide] it was greater than 79.4 µM; in that of `Cc1cc(=O)n(CC(C)C)c(O)c1C#N` [2-hydroxy-1-isobutyl-4-methyl-6-oxo-1,6-dihydro-3-pyridinecarbonitrile], greater than 79.4 µM; in that of `Cc1cccc(NC(=O)CSc2nnc(-c3ccc(S(=O)(=O)N4CCCC4)cc3)o2)c1` [2-{5-[4-(Pyrrolidine-1-sulfonyl)-phenyl]-[1,3,4]oxadiazol-2-ylsulfanyl}-N-m-tolyl-acetamide], greater than 79.4 µM. As for `COc1ccc(C(=O)NN=C2SCC(=O)N2Cc2ccc3c(c2)OCO3)cc1OC` [3,4-Dimethoxy-benzoic acid (3-benzo[1,3]dioxol-5-ylmethyl-4-oxo-thiazolidin-2-ylidene)-hydrazide], the half-maximal inhibitory concentration (IC50) is greater than 79.4 µM. For the compound `N#Cc1ncc(C(F)(F)F)cc1Sc1ccc(N)cc1` [3-(4-aminophenyl)sulfanyl-5-(trifluoromethyl)pyridine-2-carbonitrile], the IC50 is greater than 79.4 µM. In the case of `COc1ccc2[nH]c(=O)c(CN(Cc3ccccc3)Cc3nnnn3CC3CCCO3)cc2c1` (stereo not drawn) [3-({Benzyl-[1-(tetrahydro-furan-2-ylmethyl)-1H-tetrazol-5-ylmethyl]-amino}-methyl)-6-methoxy-1H-quinolin-2-one] it was greater than 79.4 µM; in that of `C=CCn1c(C#N)c(N)sc1=N` [3-Allyl-5-amino-2-imino-2,3-dihydro-thiazole-4-carbonitrile], greater than 79.4 µM. Consider `Cn1c(=O)c(NCCc2ccccc2)c2c3c(cccc31)C(=O)c1ccccc1-2` [3-Methyl-1-phenethylamino-3H-naphtho[1,2,3-de]quinoline-2,7-dione], for which the half-maximal inhibitory concentration (IC50) came out at 1 µM. The same measure for `Cc1cc(C(=O)CN2C(=O)NC(c3ccccc3)(c3ccccc3)C2=O)c(C)n1Cc1ccccc1` [3-[2-(1-benzyl-2,5-dimethyl-pyrrol-3-yl)-2-keto-ethyl]-5,5-diphenyl-hydantoin]: greater than 79.4 µM.

The compound `Cc1cc(C)n2nc(SC3CCCCN(C(=O)c4ccc(F)cc4)C3=O)nc2n1` (stereo not drawn) [3-[(5,7-dimethyl-[1,2,4]triazolo[1,5-a]pyrimidin-2-yl)sulfanyl]-1-(4-fluorobenzoyl)azepan-2-one] came in with a concentration for half-maximal inhibition (IC50) greater than 79.4 µM.

As to `CCOC(=O)c1oc2cccc(O)c2c1CN(Cc1ccccc1)C(C)=O` [3-[[acetyl(benzyl)amino]methyl]-4-hydroxy-coumarilic acid ethyl ester], the half-maximal inhibitory concentration (IC50) is greater than 79.4 µM.

`CC1CCN(S(=O)(=O)c2cc(Br)cc(C(=O)NC3=NCCS3)c2)CC1` [3-bromanyl-N-(4,5-dihydro-1,3-thiazol-2-yl)-5-(4-methylpiperidin-1-yl)sulfonyl-benzamide] had a 50% inhibitory concentration (IC50) greater than 79.4 µM. The same measure for `Clc1cccc(CN=Nc2ncnc3ccccc23)c1` [3-chlorobenzenecarbaldehyde N-(4-quinazolinyl)hydrazone]: greater than 79.4 µM. Turning to `CC(C)CC(=O)NC(=S)NCCc1ccccc1` [3-methyl-N-(2-phenylethylcarbamothioyl)butanamide], the IC50 was greater than 79.4 µM. `O=C(CCC1N=C2c3ccccc3N=C(SCc3ccc(F)cc3)N2C1=O)NCc1ccco1` (stereo not drawn) [3-{5-[(4-fluorobenzyl)thio]-3-oxo-2,3-dihydroimidazo[1,2-c]quinazolin-2-yl}-N-(2-furylmethyl)propanamide]: the IC50 was greater than 79.4 µM. Compound `O=C(CC(O)(c1ccccc1)C(F)(F)F)c1cccs1` (stereo not drawn) [4,4,4-trifluoro-3-hydroxy-3-phenyl-1-(2-thienyl)-1-butanone] came in with an IC50 greater than 79.4 µM. The compound `CC1=C(C(=O)N2CCC3(CC2)OCCO3)C2(CCC(C)CC2)OC1=O` (stereo not drawn) [4-(1,4-dioxa-8-azaspiro[4.5]dec-8-ylcarbonyl)-3,8-dimethyl-1-oxaspiro[4.5]dec-3-en-2-one] gave an IC50 greater than 79.4 µM. In turn, `CN(c1ccc(Cl)cc1)c1cc(=O)n(C)c2ccccc12` [4-(4-chloro-N-methyl-anilino)-1-methyl-carbostyril] returned a half-maximal inhibitory concentration (IC50) greater than 79.4 µM.

The compound `CCOC(=O)N1CCC(n2c(SCC(=O)NCc3ccccc3)nc3ccccc3c2=O)CC1` [4-[2-[[2-(benzylamino)-2-keto-ethyl]thio]-4-keto-quinazolin-3-yl]piperidine-1-carboxylic acid ethyl ester] came in with an IC50 greater than 79.4 µM. Take `CCOC(=O)N1CCC(n2c(SCC(=O)NCCC3=CCCCC3)nc3ccccc3c2=O)CC1` [4-[2-[[2-[2-(1-cyclohexenyl)ethylamino]-2-oxoethyl]thio]-4-oxo-3-quinazolinyl]-1-piperidinecarboxylic acid ethyl ester]: the IC50 was greater than 79.4 µM. In the case of `CC(O)c1cccc(NC(=O)CCC(=O)O)c1` (stereo not drawn) [4-[3-(1-hydroxyethyl)anilino]-4-keto-butyric acid] it was greater than 79.4 µM; in that of `O=S(=O)(N1CCOCC1)N1CCN(c2ccccc2F)CC1` [4-[4-(2-fluorophenyl)piperazin-1-yl]sulfonylmorpholine], greater than 79.4 µM; in that of `O=C(O)CCC(=O)N1CCN(c2nc(-c3ccccc3Cl)c3cc(Br)ccc3n2)CC1` [4-[4-[6-bromanyl-4-(2-chlorophenyl)quinazolin-2-yl]piperazin-1-yl]-4-oxidanylidene-butanoic acid], greater than 79.4 µM.

In the case of `CCOC(=O)c1ccc(NC(=S)NCC(O)c2ccccc2)cc1` (stereo not drawn) [4-[(2-hydroxy-2-phenyl-ethyl)thiocarbamoylamino]benzoic acid ethyl ester], the IC50 was greater than 79.4 µM. The same measure for `COC(=O)c1ccc(NC(=O)CN2CCN(c3cccc(Cl)c3)CC2)cc1` [4-[[2-[4-(3-chlorophenyl)-1-piperazinyl]-1-oxoethyl]amino]benzoic acid methyl ester]: greater than 79.4 µM; for `O=C(O)c1ccc(CSc2n[nH]c(-c3ccco3)n2)cc1` [4-[[5-(furan-2-yl)-1H-1,2,4-triazol-3-yl]sulfanylmethyl]benzoic acid]: greater than 79.4 µM. In the case of `Fc1ccc(Sc2cc(Cl)c(-c3ccccc3)nn2)cc1` [4-chloranyl-6-(4-fluorophenyl)sulfanyl-3-phenyl-pyridazine] it was greater than 79.4 µM; in that of `O=C(NN=C1C(=O)c2cccc3cccc1c23)c1ccc(Cl)cc1` [4-chloranyl-N-[(2-oxidanylideneacenaphthylen-1-ylidene)amino]benzamide], 17.8 µM.

As for `Cc1cccc2c(C(=O)O)c3c(nc12)CCCCC3` [4-methyl-7,8,9,10-tetrahydro-6H-cyclohepta[b]quinoline-11-carboxylic acid], the IC50 was greater than 79.4 µM. The same measure for `Cc1ccc(-n2ncc3c(=O)n(CC(=O)N4CCCCCC4)cnc32)cc1` [5-(2-azepan-1-yl-2-oxoethyl)-1-(4-methylphenyl)-1,5-dihydro-4H-pyrazolo[3,4-d]pyrimidin-4-one]: greater than 79.4 µM.
